Source: patent publication US20240150293A1, “SPIROCYCLOHEXANE DERIVATIVES, PHARMACEUTICAL COMPOSITIONS CONTAINING THEM AND THEIR USES AS ANTI-APOPTOTIC INHIBITORS” (LES LABORATOIRES SERVIER, priority 2021, published 2024)

What was measured:
[1] = target: Cy5-labelled Mcl1 (amino acids 171-321) C286S protein (UniProtKB Q07820) (Homo sapiens (Human), UniProt Q07820, C286S); assay: Inhibition of Mcl-1 by the fluorescence quenching assay (Example A, Method B); assay type: binding
Summary of the method: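 Cy5-labelled Mcl1 171-321 C286S (1 nM) quenched by TQ5WS-labelled PUMA peptide (10, 20 or 400 nM); displacement raises fluorescence (Ex 620/Em 680 nm). Buffer 10 mM HEPES, 150 mM NaCl, 0.05% Tween 20, pH 7.4, 5% DMSO; 2 h at room temperature, 11-point curves, IC50 converted to Ki (cKi/eKi).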

[2] = tested on: H929 multiple myeloma tumor line; assay: In vitro cytotoxicity, MTT assay (Example B, Method A); assay type: cell-based; conditions: Homo sapiens, NCI-H929, 48 h, H929 cells, 48 hours exposure, read-out: C50
Procedure: The cytotoxicity studies were carried out on the H929 multiple myeloma tumor line.
The cells are distributed onto microplates and exposed to the test compounds for 48 hours. The cell viability is then quantified by a colorimetric assay, the Microculture Tetrazolium Assay (Carmichael et al, Cancer Res. 1987, 47, 939-942).
The results are expressed in C50 which means concentration corresponding to […] of effect/inhibition.

Sequence of Cy5-labelled Mcl1 (amino acids 171-321) C286S protein (Q07820 171-321 C286S): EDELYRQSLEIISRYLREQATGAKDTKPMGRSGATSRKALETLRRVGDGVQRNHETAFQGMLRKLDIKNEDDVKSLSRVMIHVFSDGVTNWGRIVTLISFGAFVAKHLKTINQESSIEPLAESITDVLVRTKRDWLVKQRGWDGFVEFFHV

Ki [1] [nM]	Structure (SMILES)	IC50 [2] [nM]
0.932	C[C@@H](COc1ccnc2ccsc12)C[C@H]1Cc2cc(F)ccc2[C@]12CC[C@@](Nc1cccc(Cl)c1)(C(=O)O)CC2 [Example 737, (1r,2′S,4S)-4-(3-chloroanilino)-5′-fluoro-2′-{(2R)-2-methyl-3-[(thieno[3,2-b]pyridin-7-yl)oxy]propyl}-2′,3′-dihydrospiro[cyclohexane-1,1′-indene]-4-carboxylic acid]	191
3.85	COCc1ccc2c(c1)[C@]1(CC[C@@](Nc3cccc(Cl)c3)(C(=O)O)CC1)[C@H](C[C@@H](C)COc1ccnc3c1[C@H](C)CCC3)C2 [Example 920, (1r,2′R,4R)-4-(3-chloroanilino)-6′-(methoxymethyl)-2′-[(2R)-2-methyl-3-{[(5R)-5-methyl-5,6,7,8-tetrahydroquinolin-4-yl]oxy}propyl]-2′,3′-dihydrospiro[cyclohexane-1,1′-indene]-4-carboxylic acid]	104
27.7	C[C@@H](COc1ccnc2c1[C@H](C)CCC2)C[C@H]1Cc2ccccc2[C@]12CC[C@@](Nc1cc(Cl)ccc1F)(C(=O)O)CC2 [Example 705, (1r,2′S,4S)-4-(5-chloro-2-fluoroanilino)-2′-[(2R)-2-methyl-3-{[(5R)-5-methyl-5,6,7,8-tetrahydroquinolin-4-yl]oxy}propyl]-2′,3′-dihydrospiro[cyclohexane-1,1′-indene]-4-carboxylic acid]	2750
1.52	C[C@@H](COc1ccnc2c1[C@H](C)CCC2)C[C@@H]1Cc2cc(F)ccc2[C@]12CC[C@@](Nc1cccc(Cl)c1)(C(=O)O)CC2 [Example 769, (1r,2′R,4R)-4-(3-chloroanilino)-5′-fluoro-2′-[(2R)-2-methyl-3-{[(5R)-5-methyl-5,6,7,8-tetrahydroquinolin-4-yl]oxy}propyl]-2′,3′-dihydrospiro[cyclohexane-1,1′-indene]-4-carboxylic acid]	125

More lines, now with the values behind:

Structure (SMILES)	Ki [1] [nM]	IC50 [2] [nM]
CC(CC1Cc2ccccc2[C@]12CC[C@@](Nc1cccc(Cl)c1)(C(=O)O)CC2)C1CCC(=O)CC1 (single isomer, unassigned) [Example 570, (1r,4r)-4-(3-chloroanilino)-2′-[2-(4-oxocyclohexyl)propyl]-2′,3′-dihydrospiro[cyclohexane-1,1′-indene]-4-carboxylic acid]	363	30000
C[C@@H](COc1ccnc2c(Cl)cn(C)c12)C[C@H]1Cc2ccccc2[C@]12CC[C@@](Nc1cccc(Cl)c1)(C(=O)O)CC2 [Example 631, (1r,2′S,4S)-4-(3-chloroanilino)-2′-{(2R)-3-[(3-chloro-1-methyl-1H-pyrrolo[3,2-b]pyridin-7-yl)oxy]-2-methylpropyl}-2′,3′-dihydrospiro[cyclohexane-1,1′-indene]-4-carboxylic acid]	12.6	3170
CC1CC(O)c2nccc(OC[C@H](C)C[C@H]3Cc4ccccc4[C@]34CC[C@@](Nc3cccc(Cl)c3)(C(=O)O)CC4)c21 (stereo partly drawn) [Example 610, (1r,2′S,4S)-4-(3-chloroanilino)-2′-{(2R)-3-[(7-hydroxy-5-methyl-6,7-dihydro-5H-cyclopenta[b]pyridin-4-yl)oxy]-2-methylpropyl}-2′,3′-dihydrospiro[cyclohexane-1,1′-indene]-4-carboxylic acid]	0.767	423
C[C@@H](COc1ccncc1C(F)(F)F)C[C@H]1Cc2ccccc2[C@]12CC[C@@](Nc1cccc(Cl)c1)(C(=O)O)CC2 [Example 578, (1r,2′S,4S)-4-(3-chloroanilino)-2′-[(2R)-2-methyl-3-{[3-(trifluoromethyl)pyridin-4-yl]oxy}propyl]-2′,3′-dihydrospiro[cyclohexane-1,1′-indene]-4-carboxylic acid]	7.84	471
